The values that follow are results of earlier work, collected in publication PMC11702666, “The anti-COVID-19 drug Paxlovid crosses biological barriers of the placenta and brain in rats” (npj Viruses, 2024).

“Also recorded” adds a separate entry of the source. Like-named read-outs stand apart in the source and are kept apart here.

The bioavailability is the share of a dose that reaches the circulation, judged against a reference dose that is usually intravenous.

In one data set the test system is CYP3A. The following applies: cited from earlier work; for AUC0 to infinity: midazolam 2 mg p.o.
For data set [1] the following is noted: male rats; cited from earlier work.
For data set [2] the following is noted: PBPK model LeiCNS-PK3.0; recommended dosing regimen; cited from earlier work.
The conditions of data set [3]: cited from earlier work.
For data set [4] the following is noted: oral; cited from earlier work.

Take `Cc1ncc2n1-c1ccc(Cl)cc1C(c1ccccc1F)=NC2` [midazolam]: the “increase of apparent CYP3A activity during pregnancy” value in the data set on CYP3A (for midazolam) is 35-38%. Further, the AUC0 to infinity with CYP3A (postpartum) is 0.0179 ± 0.006 µg·h/mL; in the data set with CYP3A (pregnancy, healthy pregnant women), 0.0095 ± 0.0043 µg·h/mL. For the same molecule, the “increase in CYP3A activity” value in the data set on CYP3A (pregnancy vs postpartum, from midazolam AUC) is recorded as 1.88 fold.
Regarding `CC(C)C(=O)OC[C@H]1O[C@@H](n2ccc(NO)nc2=O)[C@H](O)[C@@H]1O` [molnupiravir], the “blood–brain barrier transfer” value in data set [1] was “exhibit the potential to cross the blood–brain barrier”. The “predicted brain penetration / effective concentrations against SARS-CoV-2” value in data set [2] was “unable to penetrate the BBB”. Also, in data set [3] (pregnant rats), the placental barrier transfer result is “traverse the placental barrier; also recorded: transfer to the placental barrier”.
`CCC(CC)COC(=O)[C@H](C)N[P@](=O)(OC[C@H]1O[C@@](C#N)(c2ccc3c(N)ncnn23)[C@H](O)[C@@H]1O)Oc1ccccc1` [remdesivir]: the “predicted brain penetration / effective concentrations against SARS-CoV-2” value in data set [2] is on record as “unable to penetrate the BBB”. Further, the placental barrier transfer entry in data set [3] (experimental animal model) is “transfer to the placental barrier”.
In the case of `CC(C)c1nc(CN(C)C(=O)N[C@H](C(=O)N[C@@H](Cc2ccccc2)C[C@H](O)[C@H](Cc2ccccc2)NC(=O)OCc2cncs2)C(C)C)cs1` [ritonavir], in data set [4], the bioavailability was roughly 80%.
